Where a name gives a salt, the structure may show the parent alone.
Experiments:
p70S6K (h) = p70S6K (h) (Homo sapiens, UniProt P23443); test: Determination of p70S6 inhibitory activity (radiometric 33P-ATP filter assay); assay type: biochemical; settings: 40 min at room temperature, read-out: IC50 against P70S6 kinase
Method: The ability of compounds of the invention to inhibit P70S6 kinase was determined using the protocol below.
• 20 mM MOPS, 1 mM EDTA, 0.01% Brij-35, 5% Glycerol, 0.1% b-mercaptoethanol, 1 mg/mL BSA Method: • p70S6K (h)
In a final reaction volume of 25 μL, p70S6K (h) (5-10 mU) is incubated with 8 mM MOPS pH 7.0, 0.2 mM EDTA, 100 μM KKRNRTLTV, 10 mM Mg acetate and [γ-33P-ATP] (specific activity approx. 500 cpm/pmol, concentration as required). The reaction is initiated by the addition of the MgATP mix. After incubation for 40 minutes at room temperature, the reaction is stopped by the addition of 5 μL of a 3% phosphoric acid solution. 10 μL of the reaction mixture is then spotted onto a P30 filtermat and washed three times for 5 minutes in 75 mM phosphoric acid and once in methanol prior to drying and scintillation counting.

[1] = tested on: phosphorylation of S6 Ser235/236 in MCF-7 cells; test: Inhibition of P70S6K activity in whole cells: phospho-S6 ELISA in MCF-7 cells; assay type: cell-based; settings: Homo sapiens, MCF7, 2 h incubation, 1% FBS
Method: The following assay provides IC50 values for inhibition of P70S6K activity in a whole cell assay by determining effects on the phosphorylation of S6^Ser235/236 in MCF-7 cells by ELISA.
The following protocol was used: • 1) MCF-7 cells were seeded in 96-well plates at a density of 7×10^3 cells per well and allowed to adhere for 6 h in media containing 10% FBS. • 2) The full serum media was replaced and cells incubated overnight in media containing 1% FBS, prior to addition of test compounds. • 3) Test compounds were prepared from 10 mM or 5 mM (BEZ-235) DMSO stocks to give final concentration ranges as indicated on graphs. DMSO was constant at a final concentration of 1%. • 4) Test compounds were incubated with cells in duplicate for 2 h at 37° C./5% CO2 in a humidified atmosphere. • 5) The media was removed and cells were lysed by freeze-thawing in cell lysis buffer. • 6) Detection of phosphorylated S6Ser235/236 was then carried out using a PathScan ELISA kit (Cell Signaling Technology #7205). • 7) Lysates were diluted 1:1 with sample diluent before being applied to wells coated with an antibody against phosphorylated-S6 protein. • 8) The ELISA was then performed as stated in the manufacturers' instructions. • 9) The raw data were normalised to control values and analysed using a 4-parameter logistic equation in GraphPad Prism.

Chain of p70S6K (h) (P23443 whole entry): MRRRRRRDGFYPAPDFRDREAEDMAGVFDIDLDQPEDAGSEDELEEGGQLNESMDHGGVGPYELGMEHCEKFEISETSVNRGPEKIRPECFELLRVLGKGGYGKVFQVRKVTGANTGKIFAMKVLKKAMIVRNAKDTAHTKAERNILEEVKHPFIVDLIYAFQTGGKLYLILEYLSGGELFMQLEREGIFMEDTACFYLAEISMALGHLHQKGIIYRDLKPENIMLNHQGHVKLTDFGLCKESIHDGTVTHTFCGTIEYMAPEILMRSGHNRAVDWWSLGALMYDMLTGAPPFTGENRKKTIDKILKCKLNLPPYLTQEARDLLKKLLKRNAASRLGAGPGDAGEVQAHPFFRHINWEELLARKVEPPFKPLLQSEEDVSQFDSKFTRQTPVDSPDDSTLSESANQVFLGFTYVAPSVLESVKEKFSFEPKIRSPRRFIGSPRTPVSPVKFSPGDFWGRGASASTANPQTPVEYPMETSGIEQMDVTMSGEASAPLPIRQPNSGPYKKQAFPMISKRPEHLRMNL

Compound: Clc1ccccc1CNc1cnc2cc(-c3cn[nH]c3)ccc2n1 [Example 10, (2-Chloro-benzyl)-[6-(1H-pyrazol-4-yl)-quinoxalin-2-yl]-amine]
- IC50 (p70S6K (h)): < 1 µM

Compound: c1cc(CNc2cnc3cc(-c4cn[nH]c4)ccc3n2)ccn1 [Example 14, [6-(1H-Pyrazol-4-yl)-quinoxalin-2-yl]-pyridin-4-ylmethyl-amine hydrochloride]
- IC50 (p70S6K (h)): < 5 µM

Compound: c1cncc(CNc2cnc3cc(-c4cn[nH]c4)ccc3n2)c1 [Example 15, [6-(1H-Pyrazol-4-yl)-quinoxalin-2-yl]-pyridin-3-ylmethyl-amine hydrochloride]
- IC50 (p70S6K (h)): < 1 µM

Compound: c1ccc(CNc2cnc3cc(-c4cn[nH]c4)ccc3n2)nc1 [Example 16, [6-(1H-Pyrazol-4-yl)-quinoxalin-2-yl]-pyridin-2-ylmethyl-amine hydrochloride]
- IC50 (p70S6K (h)): < 5 µM

Compound: COc1ccccc1CNc1cnc2cc(-c3cn[nH]c3)ccc2n1 [Example 19, (2-Methoxy-benzyl)-[6-(1H-pyrazol-4-yl)-quinoxalin-2-yl]-amine]
- IC50 (p70S6K (h)): < 1 µM

Compound: Fc1ccc(CNc2cnc3cc(-c4cn[nH]c4)ccc3n2)cc1C(F)(F)F [Example 20, (4-Fluoro-3-trifluoromethyl-benzyl)-[6-(1H-pyrazol-4-yl)-quinoxalin-2-yl]-amine]
- IC50 (p70S6K (h)): < 1 µM

Compound: CN(Cc1ccccc1)c1cnc2cc(-c3ccncc3)ccc2n1 [Example 22, Benzyl-methyl-(6-pyridin-4-yl-quinoxalin-2-yl)-amine]
- IC50 (p70S6K (h)): < 1 µM

Compound: CN(Cc1ccccc1)c1cnc2cc(-c3ccncn3)ccc2n1 [Example 23, Benzyl-methyl-(6-pyrimidin-4-yl-quinoxalin-2-yl)-amine]
- IC50 (p70S6K (h)): < 1 µM

Compound: C[C@H](Nc1cnc2cc(-c3cn[nH]c3)ccc2n1)c1ccccc1 [Example 24, ((S)-1-Phenyl-ethyl)-[6-(1H-pyrazol-4-yl)-quinoxalin-2-yl]-amine hydrochloride]
- IC50 (p70S6K (h)): < 5 µM

Compound: CN(Cc1ccc(F)c(C(F)(F)F)c1)c1cnc2cc(-c3cn[nH]c3)ccc2n1 [Example 29, (4-Fluoro-3-trifluoromethyl-benzyl)-methyl-[6-(1H-pyrazol-4-yl)-quinoxalin-2-yl]-amine]
- IC50 (p70S6K (h)): < 1 µM

Compound: FC(F)(F)Oc1cccc(CNc2cnc3cc(-c4cn[nH]c4)ccc3n2)c1 [Example 30, [6-(1H-Pyrazol-4-yl)-quinoxalin-2-yl]-(3-trifluoromethoxy-benzyl)-amine]
- IC50 (p70S6K (h)): < 1 µM

Compound: CN(Cc1ccccc1)c1nc2ccc(-c3cn[nH]c3)cc2[n+]([O-])n1 [Example 34, Benzyl-methyl-[1-oxy-7-(1H-pyrazol-4-yl)-benzo[1,2,4]triazin-3-yl]-amine]
- IC50 (p70S6K (h)): < 0.1 µM

Compound: CN(Cc1ccccc1)c1nnc2cc(-c3cn[nH]c3)ccc2n1 [Example 35, Benzyl-methyl-[7-(1H-pyrazol-4-yl)-benzo[1,2,4]triazin-3-yl]-amine]
- IC50 (p70S6K (h)): < 0.1 µM

Compound: COc1cccc(CNc2nc3ccc(-c4cn[nH]c4)cc3[n+]([O-])n2)c1 [Example 36, (3-Methoxy-benzyl)-[1-oxy-7-(1H-pyrazol-4-yl)-benzo[1,2,4]triazin-3-yl]-amine]
- IC50 (p70S6K (h)): < 0.1 µM

Compound: COc1cccc(CNc2nnc3cc(-c4cn[nH]c4)ccc3n2)c1 [Example 37, (3-Methoxy-benzyl)-[7-(1H-pyrazol-4-yl)-benzo[1,2,4]triazin-3-yl]-amine]
- IC50 (p70S6K (h)): < 1 µM

Compound: c1ccc2cc(CNc3cnc4cc(-c5cn[nH]c5)ccc4n3)ccc2c1 [Example 39, Naphthalen-2-ylmethyl-[6-(1H-pyrazol-4-yl)-quinoxalin-2-yl]-amine hydrochloride]
- IC50 (p70S6K (h)): < 1 µM

Compound: FC(F)(F)c1ccc(CNc2cnc3cc(-c4cn[nH]c4)ccc3n2)cc1 [Example 40, [6-(1H-Pyrazol-4-yl)-quinoxalin-2-yl]-(4-trifluoromethyl-benzyl)-amine]
- IC50 (p70S6K (h)): < 1 µM

Compound: CN(Cc1ccccc1)c1cnc2cc(-c3cncnc3)ccc2n1 [Example 43, Benzyl-methyl-(6-pyrimidin-5-yl-quinoxalin-2-yl)-amine]
- IC50 (p70S6K (h)): < 0.1 µM
- IC50 [1]: < 20 µM

Compound: Cc1ccc(CNc2cnc3cc(-c4cn[nH]c4)ccc3n2)cc1 [Example 44, (4-Methyl-benzyl)-[6-(1H-pyrazol-4-yl)-quinoxalin-2-yl]-amine]
- IC50 (p70S6K (h)): < 0.1 µM

Compound: CN(Cc1ccccc1Cl)c1cnc2cc(-c3cn[nH]c3)ccc2n1 [Example 45, (2-Chloro-benzyl)-methyl-[6-(1H-pyrazol-4-yl)-quinoxalin-2-yl]-amine hydrochloride]
- IC50 (p70S6K (h)): < 1 µM

Compound: CN1CCN(c2cccc(CN(C)c3cnc4cc(-c5cn[nH]c5)ccc4n3)c2)CC1 [Example 48, Methyl-[3-(4-methyl-piperazin-1-yl)-benzyl]-[6-(1H-pyrazol-4-yl)-quinoxalin-2-yl]-amine]
- IC50 (p70S6K (h)): < 0.1 µM

Compound: C[C@H](c1ccccc1)N(C)c1cnc2cc(-c3cn[nH]c3)ccc2n1 [Example 51, Methyl-((R)-1-phenyl-ethyl)-[6-(1H-pyrazol-4-yl)-quinoxalin-2-yl]-amine]
- IC50 (p70S6K (h)): < 0.1 µM
- IC50 [1]: < 5 µM

Compound: COc1cccc([C@@H](C)N(C)c2cnc3cc(-c4cn[nH]c4)ccc3n2)c1 [Example 53, [(R)-1-(3-Methoxy-phenyl)-ethyl]-methyl-[6-(1H-pyrazol-4-yl)-quinoxalin-2-yl]-amine hydrochloride]
- IC50 (p70S6K (h)): < 0.1 µM
- IC50 [1]: < 1 µM

Compound: Oc1cccc(CNc2cnc3cc(-c4cn[nH]c4)ccc3n2)c1 [Example 54, 3-{[6-(1H-Pyrazol-4-yl)-quinoxalin-2-ylamino]-methyl}-phenol]
- IC50 (p70S6K (h)): < 0.1 µM
- IC50 [1]: < 5 µM

Compound: C[C@@H](Nc1cnc2cc(-c3cn[nH]c3)ccc2n1)c1cccc(Cl)c1 [Example 55, [(R)-1-(3-Chloro-phenyl)-ethyl]-[6-(1H-pyrazol-4-yl)-quinoxalin-2-yl]-amine hydrochloride]
- IC50 (p70S6K (h)): < 0.1 µM
- IC50 [1]: < 1 µM

Compound: C[C@H](c1cccc(Cl)c1)N(C)c1cnc2cc(-c3cn[nH]c3)ccc2n1 [Example 56, [(R)-1-(3-Chloro-phenyl)-ethyl]-methyl-[6-(1H-pyrazol-4-yl)-quinoxalin-2-yl]-amine]
- IC50 [1]: < 5 µM

Compound: C[C@@H](c1ccccc1)N(C)c1cnc2cc(-c3cn[nH]c3)ccc2n1 [Example 57, Methyl-((S)-1-phenyl-ethyl)-[6-(1H-pyrazol-4-yl)-quinoxalin-2-yl]-amine]
- IC50 (p70S6K (h)): < 1 µM

Compound: Cc1cccc([C@@H](C)Nc2cnc3cc(-c4cn[nH]c4)ccc3n2)c1 [Example 58, [6-(1H-Pyrazol-4-yl)-quinoxalin-2-yl]-((R)-1-m-tolyl-ethyl)-amine hydrochloride]
- IC50 [1]: < 1 µM

Compound: C[C@H](Nc1cnc2cc(-c3cn[nH]c3)ccc2n1)c1cccc(F)c1 [Example 59, [(S)-1-(3-Fluoro-phenyl)-ethyl]-[6-(1H-pyrazol-4-yl)-quinoxalin-2-yl]-amine hydrochloride]
- IC50 (p70S6K (h)): < 5 µM
- IC50 [1]: < 20 µM

Compound: C[C@@H](c1cccc(F)c1)N(C)c1cnc2cc(-c3cn[nH]c3)ccc2n1 [Example 60, [(S)-1-(3-Fluoro-phenyl)-ethyl]-methyl-[6-(1H-pyrazol-4-yl)-quinoxalin-2-yl]-amine]
- IC50 (p70S6K (h)): < 1 µM
- IC50 [1]: < 20 µM

Compound: [O-][n+]1nc(NCc2ccccc2)nc2ccc(-c3cn[nH]c3)cc21 [Example 61, Benzyl-[1-oxy-7-(1H-pyrazol-4-yl)-benzo[1,2,4]triazin-3-yl]-amine]
- IC50 (p70S6K (h)): < 1 µM

Compound: [O-][n+]1nc(NCc2ccc(Cl)cc2)nc2ccc(-c3cn[nH]c3)cc21 [Example 62, (4-Chloro-benzyl)-[1-oxy-7-(1H-pyrazol-4-yl)-benzo[1,2,4]triazin-3-yl]-amine]
- IC50 (p70S6K (h)): < 1 µM

Compound: [O-][n+]1nc(NCc2cccc(Cl)c2)nc2ccc(-c3cn[nH]c3)cc21 [Example 63, (3-Chloro-benzyl)-[1-oxy-7-(1H-pyrazol-4-yl)-benzo[1,2,4]triazin-3-yl]-amine]
- IC50 (p70S6K (h)): < 1 µM

Compound: c1ccc(CNc2nnc3cc(-c4cn[nH]c4)ccc3n2)cc1 [Example 64, Benzyl-[7-(1H-pyrazol-4-yl)-benzo[1,2,4]triazin-3-yl]-amine]
- IC50 (p70S6K (h)): < 1 µM

Compound: [O-][n+]1cc(NCc2ccccc2)nc2ccc(-c3cn[nH]c3)cc21 [Example 65C, benzyl-[4-oxy-6-(1H-pyrazol-4-yl)-quinoxalin-2-yl]-amine]
- IC50 (p70S6K (h)): < 1 µM
